Experiments:
Human PKMYT1 = biological target: T1, Human PKMYT1 (Homo sapiens, UniProt Q99640); assay: PKMYT1 biochemical ADP-Glo enzymatic assay; details: ADP-Glo
T1 construct: Human PKMYT1 75-362 was cloned as a TEV cleavable 6xHis fusion; 6xHis (TEV cleavable) (cleaved yes); made in house; host or cells: bacterial cells
T1 sequence (Q99640 75-362): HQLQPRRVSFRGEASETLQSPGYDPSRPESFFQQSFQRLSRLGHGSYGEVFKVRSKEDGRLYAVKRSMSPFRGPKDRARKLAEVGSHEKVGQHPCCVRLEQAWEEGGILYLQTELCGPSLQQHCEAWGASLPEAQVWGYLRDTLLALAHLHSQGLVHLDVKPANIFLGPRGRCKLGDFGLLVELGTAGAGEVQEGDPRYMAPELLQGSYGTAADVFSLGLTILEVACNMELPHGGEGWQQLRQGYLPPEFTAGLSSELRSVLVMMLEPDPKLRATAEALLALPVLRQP
How it was run: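 IC50 derived from luminescence (ADP-Glo Max) after PKMYT1 kinase domain, 15 nM, turned over 500 µM ATP for 60 min at 26 °C. Buffer contained 10 mM MgCl2, 1 mM EGTA and 0.01% Brij-35 at pH 7.5.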

WEE1 = biological target: T2, WEE1 (Homo sapiens, UniProt P30291); assay: Selectivity versus WEE1 assay (ADP-Glo enzymatic assay); assay type: biochemical; details: for IC50: ADP-Glo; for PKMYT1 vs. WEE1 selectivity: fold difference in selectivity for PKMYT1 over WEE1
T2 construct: purchased Thermo Fisher PR7373A
T2 sequence (P30291 whole entry): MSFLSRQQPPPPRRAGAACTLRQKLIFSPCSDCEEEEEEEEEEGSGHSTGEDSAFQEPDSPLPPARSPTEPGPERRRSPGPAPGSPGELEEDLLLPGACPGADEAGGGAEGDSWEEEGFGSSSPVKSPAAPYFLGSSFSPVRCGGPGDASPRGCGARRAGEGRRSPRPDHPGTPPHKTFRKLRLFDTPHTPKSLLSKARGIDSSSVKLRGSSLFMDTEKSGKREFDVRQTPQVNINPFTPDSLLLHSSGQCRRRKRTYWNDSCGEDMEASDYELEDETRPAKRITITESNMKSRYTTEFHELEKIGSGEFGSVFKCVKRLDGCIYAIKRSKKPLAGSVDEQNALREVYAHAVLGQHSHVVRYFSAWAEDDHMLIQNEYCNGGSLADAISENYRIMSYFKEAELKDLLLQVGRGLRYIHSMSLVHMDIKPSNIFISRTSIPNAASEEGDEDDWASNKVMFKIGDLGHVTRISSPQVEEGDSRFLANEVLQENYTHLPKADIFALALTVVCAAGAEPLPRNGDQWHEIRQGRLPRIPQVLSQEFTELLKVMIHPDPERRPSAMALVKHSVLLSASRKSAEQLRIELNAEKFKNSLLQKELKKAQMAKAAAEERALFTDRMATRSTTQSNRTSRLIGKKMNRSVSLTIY
How it was run: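 Inhibition is measured as reduced ADP production, detected by luminescence with ADP-Glo, after enzyme (15 nM) and 30 µM ATP react for 60 min at 26° C in 1% DMSO-containing HEPES buffer, pH 7.5. Data are accepted only if replicate IC50s fall within 3-fold and r2 exceeds 0.9.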

[1] = 15 nM PKMYT1 kinase domain, 500 µM ATP, 60 minutes at 26° C., banded
[2] = 15 nM WEE1, 60 minutes at 26° C., banded
[3] = banded, ">N" = at least in this band but could be higher
[4] = PKMYT1 kinase domain 15 nM, banded values

SMILES	IC50 (Human PKMYT1; [1])	IC50 (WEE1; [2])	PKMYT1 vs. WEE1 selectivity (WEE1; [3])	IC50 (Human PKMYT1; [4])	IC50 (WEE1; WEE1 15 nM, banded values)	PKMYT1 vs. WEE1 selectivity (WEE1; banded)
Cc1ccc(O)c(C)c1NC(=O)c1cnc(Nc2ccn([C@@H]3CCN(C(=O)Cc4ccccc4)C3)n2)s1 [BAA-083]	50 to 1000 nM	> 11000 nM	>Y (1000-5000 fold)			
COc1ccc(CC(=O)N2CC[C@@H](n3ccc(Nc4ncc(C(=O)Nc5c(C)ccc(O)c5C)s4)n3)C2)cc1 [BAA-089]	50 to 1000 nM	> 11000 nM	>X (100-<1000 fold)			
Cc1ccc(O)c(C)c1NC(=O)c1cnc(Nc2ccn(CC(=O)N3CCN(C(=O)N(C)C)CC3)n2)s1 [BAA-154]	< 50 nM	> 11000 nM	Y (1000-5000 fold)			
Cc1ccc(O)c(C)c1NC(=O)c1cnc(Nc2ccn([C@@H]3CCN(C(=O)c4ccccc4)C3)n2)s1 [BAA-087]	50 to 1000 nM	> 11000 nM				
Cn1ccc(Nc2ncc(C(=O)Nc3c(F)ccc(O)c3F)s2)n1 [BAA-249, N-(2,6-difluoro-3-hydroxyphenyl)-2-((1-methyl-1H-pyrazol-3-yl)amino)thiazole-5-carboxamide]	50 to 1000 nM	> 11000 nM	X (100-<1000 fold)			
Cc1ccc(O)c(C)c1NC(=O)c1cnc(Nc2ccn([C@@H]3CCN(C(=O)COc4ccccc4)C3)n2)s1 [BAA-088]	50 to 1000 nM	> 11000 nM	>X (100-<1000 fold)			
Cc1ccc(O)c(C)c1NC(=O)c1cnc(NCCNC(=O)OC(C)(C)C)s1 [BAA-068, tert-butyl N-[2-[5-[(3-hydroxy-2,6-dimethyl-phenyl)carbamoyl]thiazol-2-yllamino]ethyl]carbamate]	50 to 1000 nM	> 11000 nM	>X (100-<1000 fold)			
Cc1ccc(O)c(C)c1NC(=O)c1cnc(Nc2ccn([C@@H]3CCN(C(=O)C(C)(C)c4ccccc4)C3)n2)s1 [BAA-094]	50 to 1000 nM	> 11000 nM	>X (100-<1000 fold)			
Cc1ccc(O)c(C)c1NC(=O)c1cnc(Nc2ccn([C@H]3CCN(C(=O)OC(C)(C)C)C3)n2)s1 [BAA-042]	50 to 1000 nM	> 11000 nM	>X (100-<1000 fold)			
CCN(CC)C(=O)c1cc(Nc2ncc(C(=O)Nc3c(C)ccc(O)c3C)s2)nn1C [BAA-545, 2-((5-(diethylcarbamoyl)-1-methyl-1H-pyrazol-3-yl)amino)-N-(3-hydroxy-2,6-dimethylphenyl)thiazole-5-carboxamide]				50 to 1000 nM	1000 to 11000 nM	W (10-<100 fold)
Cc1ccc(O)c(C)c1NC(=O)c1cnc(Nc2cc(C)n(CC(C)O)n2)s1 (centres unmarked) [BAA-540, N-(3-hydroxy-2,6-dimethylphenyl)-2-((1-(2-hydroxypropyl)-5-methyl-1H-pyrazol-3-yl)amino)thiazole-5-carboxamide]				< 50 nM	1000 to 11000 nM	X (100-<1000 fold)
Cc1ccc(O)c(C)c1NC(=O)c1cnc(Nc2nc(CO)cs2)s1 [BAA-018]	< 50 nM	> 11000 nM	X (100-<1000 fold)			
Cc1ccc(O)c(C)c1NC(=O)c1cnc(Nc2ccc3cc(F)ccc3n2)s1 [BAA-288, 2-((6-fluoroquinolin-2-yl)amino)-N-(3-hydroxy-2,6-dimethylphenyl)thiazole-5-carboxamide]	50 to 1000 nM	> 11000 nM	X (100-<1000 fold)			
Cc1ccc(O)c(C)c1NC(=O)c1cnc(Nc2ccn(CC(=O)N3CCN(C4CCC4)CC3)n2)s1 [BAA-185]	50 to 1000 nM	> 11000 nM	>Y (1000-5000 fold)			
Cc1ccc(O)c(C)c1NC(=O)c1cnc(Nc2ccn(C3CCNCC3)n2)s1 [BAA-055]	50 to 1000 nM	> 11000 nM	>X (100-<1000 fold)			
Cc1ccc(O)c(C)c1NC(=O)c1cnc(Nc2ccn(CC(=O)N3C[C@@H]4C[C@H]3CN4C)n2)s1 [BAA-172]	< 50 nM	> 11000 nM	X (100-<1000 fold)			
COCCOCCNC(=O)Cn1ccc(Nc2ncc(C(=O)Nc3c(C)ccc(O)c3C)s2)n1 [BAA-134, N-(3-hydroxy-2,6-dimethyl-phenyl)-2-[[1-[2-[2-(2-methoxyethoxy)ethylamino]-2-oxo-ethyl]pyrazol-3-yl]amino]thiazole-5-carboxamide]	< 50 nM	> 11000 nM	Y (1000-5000 fold)			
CCN(C(=O)C(C)(C)C)c1ccc(C)c(Nc2ncc(C(=O)Nc3c(C)ccc(O)c3C)s2)n1 [BAA-234, 2-((6-(N-ethylpivalamido)-3-methylpyridin-2-yl)amino)-N-(3-hydroxy-2,6-dimethylphenyl) thiazole-5-carboxamide]	< 50 nM	1000 to 11000 nM	X (100-<1000 fold)			
Cc1ccc(O)c(C)c1NC(=O)c1cnc(Nc2ccn(CC(=O)NCCN3CCNCC3)n2)s1 [BAA-228, N-(3-hydroxy-2,6-dimethylphenyl)-2-((1-(2-oxo-2-((2-(piperazin-1-yl)ethyl)amino)ethyl)-1H-pyrazol-3-yl)amino)thiazole-5-carboxamide]	< 50 nM	> 11000 nM	X (100-<1000 fold)			
O=C(Nc1c(F)ccc(O)c1Cl)c1cnc(Nc2ccn(CC(=O)N3CCCC3)n2)s1 [BAA-482, N-(2-chloro-6-fluoro-3-hydroxyphenyl)-2-((1-(2-oxo-2-(pyrrolidin-1-yl)ethyl)-1H-pyrazol-3-yl)amino) thiazole-5-carboxamide]				< 50 nM	> 11000 nM	Y (1000-5000 fold)

Further lines, results first:

IC50 (Human PKMYT1; [1])	IC50 (WEE1; [2])	PKMYT1 vs. WEE1 selectivity (WEE1; [3])	IC50 (Human PKMYT1; [4])	IC50 (WEE1; WEE1 15 nM, banded values)	PKMYT1 vs. WEE1 selectivity (WEE1; banded)	SMILES
50 to 1000 nM	> 11000 nM	Y (1000-5000 fold)				Cc1ccc(O)c(C)c1NC(=O)c1cnc(Nc2cc3ccccn3n2)s1 [BAA-048, N-(3-hydroxy-2,6-dimethyl-phenyl)-2-(pyrazolo[1,5-a]pyridin-2-ylamino)thiazole-5-carboxamide]
< 50 nM	> 11000 nM	X (100-<1000 fold)				Cc1ccc(O)c(C)c1NC(=O)c1cnc(Nc2ccon2)s1 [BAA-009, N-(3-hydroxy-2,6-dimethyl-phenyl)-2-(isoxazol-3-ylamino)thiazole-5-carboxamide]
50 to 1000 nM	> 11000 nM	>X (100-<1000 fold)				CCNc1ncc(C(=O)Nc2c(C)ccc(O)c2C)s1 [BAA-060, 2-(ethylamino)-N-(3-hydroxy-2,6-dimethyl-phenyl)thiazole-5-carboxamide]
50 to 1000 nM	> 11000 nM	Y (1000-5000 fold)				Cc1ccc(O)c(C)c1NC(=O)c1cnc(Nc2ccnn2C)s1 [BAA-010, N-(3-hydroxy-2,6-dimethyl-phenyl)-2-[(2-methylpyrazol-3-yl)amino]thiazole-5-carboxamide]
50 to 1000 nM	> 11000 nM	Y (1000-5000 fold)				Cc1ccc(O)c(C)c1NC(=O)c1cnc(NCc2ccncc2)s1 [BAA-350, N-(3-hydroxy-2,6-dimethylphenyl)-2-((pyridin-4-ylmethyl)amino) thiazole-5-carboxamide]
50 to 1000 nM	> 11000 nM	Y (1000-5000 fold)				Cc1ccc(O)c(C)c1NC(=O)c1cnc(NCc2ccccc2)s1 [BAA-344, 2-(benzylamino)-N-(3-hydroxy-2,6-dimethylphenyl) thiazole-5-carboxamide]
< 50 nM	> 11000 nM	Y (1000-5000 fold)				Cc1ccc(O)c(C)c1NC(=O)c1cnc(NCc2cccc(O)c2)s1 [BAA-346, N-(3-hydroxy-2,6-dimethylphenyl)-2-((3-hydroxybenzyl)amino)thiazole-5-carboxamide]
50 to 1000 nM	> 11000 nM	X (100-<1000 fold)				COc1ccccc1CNc1ncc(C(=O)Nc2c(C)ccc(O)c2C)s1 [BAA-355, N-(3-hydroxy-2,6-dimethylphenyl)-2-((2-methoxybenzyl)amino) thiazole-5-carboxamide]
50 to 1000 nM	> 11000 nM	Y (1000-5000 fold)				Cc1ccc(O)c(C)c1NC(=O)c1cnc(NCc2cccnc2)s1 [BAA-345, N-(3-hydroxy-2,6-dimethylphenyl)-2-((pyridin-3-ylmethyl)amino)thiazole-5-carboxamide]
1000 to 11000 nM	> 11000 nM	W (10-<100 fold)				Cc1ccc(O)c(C)c1NC(=O)c1cnc(NCc2nccn2C)s1 [BAA-362, N-(3-hydroxy-2,6-dimethylphenyl)-2-(((1-methyl-1H-imidazol-2-yl)methyl)amino)thiazole-5-carboxamide]
